Results reported in the NIST ThermoML archive (doi:10.1021/acs.jced.8b00011).
Several values for one entry are separate records, joined by “and”; a condition that tells them apart may be missing. Equal entries are not always repeated.

Settings: Liquid; for mass density: Vibrating tube method; for electrical conductivity: electrochemical impedance spectroscopy

CCCCC[P+](CC)(CC)CC.O=S(=O)([N-]S(=O)(=O)C(F)(F)F)C(F)(F)F
Settings	electrical conductivity	mass density
343.15 K, 45000 kPa	–	1298.89 kg/m3
343.15 K, 50000 kPa	–	1302.23 kg/m3
348.15 K, 101.33 kPa	0.885 S/m and 0.887 S/m	–
348.16 K, 101.33 kPa	0.877 S/m	–
353.15 K, 100 kPa	–	1256.32 kg/m3 [middle of 5 runs]
353.15 K, 101.33 kPa	0.999 S/m and 1 S/m	–
353.15 K, 1000 kPa	–	1256.5 kg/m3
353.15 K, 5000 kPa	–	1260.01 kg/m3
353.15 K, 10000 kPa	–	1264.27 kg/m3
353.15 K, 15000 kPa	–	1268.38 kg/m3
353.15 K, 20000 kPa	–	1272.39 kg/m3
353.15 K, 25000 kPa	–	1276.24 kg/m3
353.15 K, 30000 kPa	–	1280.04 kg/m3
353.15 K, 35000 kPa	–	1283.68 kg/m3
353.15 K, 40000 kPa	–	1287.28 kg/m3
353.15 K, 45000 kPa	–	1290.77 kg/m3
353.15 K, 50000 kPa	–	1294.22 kg/m3
363.15 K, 100 kPa	–	1248.72 kg/m3 [middle of 4 runs]

Settings	electrical conductivity [S/m]	viscosity
348.14 K, 10700 kPa, Frequency=0 MHz	0.8	–
348.14 K, 225100 kPa, Frequency=0 MHz	0.167	–
348.15 K, 100 kPa, Falling or rolling sphere viscometry	–	13.81 mPa·s [middle of 7 runs]
348.15 K, 600 kPa, Falling or rolling sphere viscometry	–	13.91 mPa·s
348.15 K, 1100 kPa, Frequency=0 MHz	0.871	–
348.15 K, 1700 kPa, Frequency=0 MHz	0.865	–
348.15 K, 3100 kPa, Frequency=0 MHz	0.855	–
348.15 K, 5100 kPa, Frequency=0 MHz	0.84	–
348.15 K, 10500 kPa, Falling or rolling sphere viscometry	–	15.46 mPa·s
348.15 K, 15700 kPa, Frequency=0 MHz	0.766	–
348.15 K, 20600 kPa, Falling or rolling sphere viscometry	–	17.36 mPa·s
348.15 K, 20800 kPa, Frequency=0 MHz	0.734	–
348.15 K, 25700 kPa, Frequency=0 MHz	0.704	–
348.15 K, 30600 kPa, Falling or rolling sphere viscometry	–	18.78 mPa·s
348.15 K, 30800 kPa, Frequency=0 MHz	0.675	–
348.15 K, 40200 kPa, Frequency=0 MHz	0.625	–
348.15 K, 40700 kPa, Falling or rolling sphere viscometry	–	20.72 mPa·s
348.15 K, 50700 kPa, Falling or rolling sphere viscometry	–	22.73 mPa·s
348.15 K, 51400 kPa, Falling or rolling sphere viscometry	–	22.92 mPa·s
348.15 K, 60700 kPa, Falling or rolling sphere viscometry	–	25.33 mPa·s
348.15 K, 70400 kPa, Falling or rolling sphere viscometry	–	27.64 mPa·s
348.15 K, 76000 kPa, Frequency=0 MHz	0.473	–
348.15 K, 80600 kPa, Falling or rolling sphere viscometry	–	29.75 mPa·s
348.15 K, 89800 kPa, Falling or rolling sphere viscometry	–	32.25 mPa·s
348.15 K, 99100 kPa, Falling or rolling sphere viscometry	–	34.86 mPa·s
348.15 K, 100500 kPa, Falling or rolling sphere viscometry	–	35.04 mPa·s
348.15 K, 125700 kPa, Falling or rolling sphere viscometry	–	42.64 mPa·s
348.15 K, 126600 kPa, Falling or rolling sphere viscometry	–	43.88 mPa·s
348.15 K, 126600 kPa, Frequency=0 MHz	0.326	–
348.15 K, 150600 kPa, Falling or rolling sphere viscometry	–	52.08 mPa·s
348.15 K, 150800 kPa, Falling or rolling sphere viscometry	–	52.23 mPa·s
348.15 K, 152400 kPa, Frequency=0 MHz	0.272	–
348.15 K, 175600 kPa, Falling or rolling sphere viscometry	–	63.12 mPa·s
348.15 K, 199600 kPa, Falling or rolling sphere viscometry	–	75.5 mPa·s
348.15 K, 200900 kPa, Frequency=0 MHz	0.196	–
348.15 K, 237000 kPa, Falling or rolling sphere viscometry	–	99.1 mPa·s
348.15 K, 242900 kPa, Falling or rolling sphere viscometry	–	104.9 mPa·s
348.15 K, 250900 kPa, Frequency=0 MHz	0.141	–
348.16 K, 100 kPa, Frequency=0 MHz	0.877	–
348.16 K, 50000 kPa, Frequency=0 MHz	0.577	–
348.16 K, 103000 kPa, Frequency=0 MHz	0.384	–
348.16 K, 176100 kPa, Frequency=0 MHz	0.231	–
353.15 K, 100 kPa, Concentric cylinders viscometry	–	12.27 mPa·s
353.15 K, 100 kPa, Falling or rolling sphere viscometry	–	12 mPa·s and 11.96 mPa·s
363.15 K, 100 kPa, Concentric cylinders viscometry	–	9.672 mPa·s
363.15 K, 100 kPa, Falling or rolling sphere viscometry	–	9.358 mPa·s and 9.337 mPa·s and 9.414 mPa·s
363.15 K, 9700 kPa, Falling or rolling sphere viscometry	–	10.37 mPa·s
363.15 K, 20100 kPa, Falling or rolling sphere viscometry	–	11.57 mPa·s
363.15 K, 20500 kPa, Falling or rolling sphere viscometry	–	11.52 mPa·s
363.15 K, 30200 kPa, Falling or rolling sphere viscometry	–	12.72 mPa·s
363.15 K, 39200 kPa, Falling or rolling sphere viscometry	–	13.83 mPa·s
363.15 K, 49400 kPa, Falling or rolling sphere viscometry	–	15.21 mPa·s
363.15 K, 59100 kPa, Falling or rolling sphere viscometry	–	16.63 mPa·s
363.15 K, 80200 kPa, Falling or rolling sphere viscometry	–	19.84 mPa·s
363.15 K, 102200 kPa, Falling or rolling sphere viscometry	–	23.51 mPa·s
363.15 K, 102500 kPa, Falling or rolling sphere viscometry	–	23.47 mPa·s
363.15 K, 124000 kPa, Falling or rolling sphere viscometry	–	27.54 mPa·s
363.15 K, 125400 kPa, Falling or rolling sphere viscometry	–	27.86 mPa·s
363.15 K, 147300 kPa, Falling or rolling sphere viscometry	–	32.93 mPa·s
363.15 K, 149300 kPa, Falling or rolling sphere viscometry	–	33.43 mPa·s
363.15 K, 172900 kPa, Falling or rolling sphere viscometry	–	39.05 mPa·s
363.15 K, 200700 kPa, Falling or rolling sphere viscometry	–	47.56 mPa·s
363.15 K, 212300 kPa, Falling or rolling sphere viscometry	–	51.41 mPa·s
